Data reported in publication PMC10810651, “Discovery of novel and potent CDK8 inhibitors for the treatment of acute myeloid leukaemia” (Journal of Enzyme Inhibition and Medicinal Chemistry, 2024).

Legend:
MDA-MB-231 = assay: Antiproliferative CCK-8 assay, MDA-MB-231; type: cell-based; conditions: Homo sapiens; MDA-MB-231, CCK-8 assay, means ± SD; read-out: GC50 (the source's name)
Excerpt: (§1) Compounds12, 13 and 30 were selected for further cell activity assessments based on the enzymatic activity assessment results. molm-13 and MV4-11(acute myeloid lineage leukaemia cells), MGC-803 (gastric cancer cell), MDA-MB-231(breast cancer cell), A375 (melanoma cell), A549 (lung cancer cell), HCT-116, SW-480 and HT-29 (colorectal cancer cells) were selected to evaluate antitumor activity in vitro, GES-1 (gastric mucosal epithelial cell) was selected to evaluate toxicity in vitro.
(§2) CO2 atmosphere incubator for 24 h. Then, medium with compound at the concentrations of 100, 20, 4, 0.8, 0.016 μM was added into each well for another 48 h and incubated with CCK-8 (10 μL) for 2 h at 37 °C. The absorbance value at 450 nm was measured by the microplate reader (PerkinElmer Envision). […]

GES-1 = assay: In vitro toxicity CCK-8 assay, GES-1; type: cell-based; conditions: Homo sapiens, GES1, GES-1 gastric mucosal epithelial cell, read-out: GC50 (the source's name)
Excerpt: as §1, §2

NC(=O)c1cccc(-c2cnc3[nH]cc(-c4ccoc4)c3c2)c1 [Compound 12, 3-(3-(furan-3-yl)-1H-pyrrolo[2,3-b]pyridin-5-yl)benzamide]
IC50 (MDA-MB-231): > 50 µM | IC50 (GES-1): 25.7 ± 4.97 µM
